What all share (assay type): binding
Test [1] concerns the target T1, Sortase B (SrtBΔ30) (Staphylococcus aureus, UniProt Q2FZE3, I182A).
T1 construct: gene srtB; SrtBΔ30
T1 sequence (Q2FZE3 31-244 I182A): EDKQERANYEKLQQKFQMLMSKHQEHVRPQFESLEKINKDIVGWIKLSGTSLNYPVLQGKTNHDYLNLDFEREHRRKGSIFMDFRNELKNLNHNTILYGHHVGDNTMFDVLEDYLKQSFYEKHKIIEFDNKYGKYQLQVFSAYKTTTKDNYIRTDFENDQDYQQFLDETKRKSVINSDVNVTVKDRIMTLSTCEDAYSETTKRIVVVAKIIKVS
Kind of test: fluorescence spectroscopy quenching (association constant KA). An excerpt:
(§1) fluorescence spectroscopy quenching (association constant KA) on Sortase B (SrtBΔ30) | the binding constants (KA) of the ligand with the mutant proteins were lower

Test [2] addresses T2, Sortase B (SrtBΔ30) (Staphylococcus aureus, UniProt Q2FZE3, N116A).
T2 construct: gene srtB; SrtBΔ30
T2 sequence (Q2FZE3 31-244 N116A): T1 sequence (Q2FZE3 31-244 I182A)
Described as above.
Excerpt: as §1

The target of test [3] is T3, Sortase B (SrtBΔ30) (Staphylococcus aureus, UniProt Q2FZE3, R115A).
T3 construct: gene srtB; SrtBΔ30
T3 sequence (Q2FZE3 31-244 R115A): T1 sequence (Q2FZE3 31-244 I182A)
The test is described as above.
Excerpt: as §1

Another test addresses T4, Sortase B (SrtBΔ30, WT) (Staphylococcus aureus, UniProt Q2FZE3).
T4 construct: gene srtB; SrtBΔ30
Kind of test: fluorescence spectroscopy quenching (association constant KA); also FRET peptide-cleavage inhibition of the purified enzyme, IC50 […].

Take `c1c2c(cc3c1OCO3)-c1cc3ccc4c(c3c[n+]1CC2)OCO4` [coptisine]: the dissociation constant (Kd) is 12.8 µM at Sortase B (SrtBΔ30) [1]; 10.9 µM on Sortase B (SrtBΔ30) [2]; 12 µM on Sortase B (SrtBΔ30) [3]; 7.35 µM on Sortase B (SrtBΔ30, WT).

In general, Kd refers to the equilibrium constant for the complex coming apart. Read a high Kd as weaker binding.
